In ChEMBL document CHEMBL3885861, “Open TG-GATES”:

Organism: Rattus norvegicus
Experiment: Open TG-GATES - Regimen: Daily Repeat
Assay type: toxicity, organism-based, Sprague-Dawley
Design: regimen Daily Repeat, gender Male, age 6 weeks
Conditions: in vivo, po, route gavage; for APTT / Bas / Eos / Fbg / Ht / Lym / MCH / MCHC / MCV / Mono / Neu / PT / Plat / RBC / Ret / WBC / Hb: tissue Blood; for KIDNEY_L / KIDNEY_R / KIDNEY_TOTAL: tissue Kidney; for LIVER: tissue Liver; for ALP / AST / BUN / CRE / Ca / Cl / DBIL / GLC / IP / LDH / Na / PL / RALB / TBIL / TC / TG / TP / gamma-GTP: tissue Plasma
[1] = 0 mg/kg, 72 h, dose level Control, time 3 day
[2] = 0 mg/kg, […], dose level Control, time 7 day
[3] = 0 mg/kg, […], dose level Control, time 14 day
[4] = 0 mg/kg, […], dose level Control, time 28 day
[5] = 10 mg/kg, 72 h, dose level Low, time 3 day
[6] = 10 mg/kg, […], dose level Low, time 7 day
[7] = 10 mg/kg, […], dose level Low, time 14 day
[8] = 10 mg/kg, […], dose level Low, time 28 day
[9] = 30 mg/kg, 72 h, dose level Middle, time 3 day

## CC(=O)N1CCN(c2ccc(OCC3COC(Cn4ccnc4)(c4ccc(Cl)cc4Cl)O3)cc2)CC1 (configuration not stated) [KETOCONAZOLE]
[1]
  TERMINAL_BW: 231 g
  APTT: 20.9 s
  Bas: 0%
  Eos: 0.8%
  Fbg: 294.6 mg/dL
  Ht: 38.3%
  Lym: 82%
  MCH: 21.7 pg
  MCHC: 34.3%
  MCV: 63.3 fL
  Mono: 2.2%
  Neu: 14.2%
  PT: 16.5 s
  Plat: 118.7 x10_4/uL
  RBC: 604.8 x10_4/ul
  Ret: 6.5%
  WBC: 106.4 x10_2/uL
  KIDNEY_L: 1.1 g
  KIDNEY_R: 1.1 g
  KIDNEY_TOTAL: 2.1 g
  LIVER: 10.8 g
  ALP: 1650.6 IU/L
  AST: 68 IU/L
  BUN: 18.6 mg/dL
  CRE: 0.2 mg/dL
  Ca: 10.8 mg/dL
  Cl: 106.2 meq/L
  DBIL: 0 mg/dL
  GLC: 184.2 mg/dL
  IP: 5.9 mg/dL
  LDH: 222.4 IU/L
  Na: 140.2 meq/L
  PL: 142.6 mg/dL
  RALB: 3 g/dL
  TBIL: 0.012 mg/dL
  TC: 71 mg/dL
  TG: 85.2 mg/dL
  TP: 5.6 g/dL
  gamma-GTP: 1.4 IU/L
[2]
  TERMINAL_BW: 269.3 g
  APTT: 22.6 s
  Bas: 0%
  Eos: 1%
  Fbg: 301.6 mg/dL
  Hb: 13.6 g/dL
  Ht: 40.1%
  Lym: 78.4%
  MCH: 21.1 pg
  MCHC: 34%
  Mono: 2%
  Neu: 17.8%
  PT: 16.1 s
  Plat: 91.9 x10_4/uL
  RBC: 645.4 x10_4/ul
  Ret: 5.5%
  WBC: 94.3 x10_2/uL
  KIDNEY_L: 1.2 g
  KIDNEY_R: 1.2 g
  KIDNEY_TOTAL: 2.4 g
  LIVER: 12.2 g
  ALP: 1766.8 IU/L
  AST: 69.2 IU/L
  BUN: 19 mg/dL
  CRE: 0.2 mg/dL
  Ca: 10.8 mg/dL
  Cl: 106.4 meq/L
  DBIL: 0 mg/dL
  GLC: 182.8 mg/dL
  IP: 6.7 mg/dL
  LDH: 176.2 IU/L
  Na: 141.8 meq/L
  PL: 156.8 mg/dL
  RALB: 3.2 g/dL
  TBIL: 0.002 mg/dL
  TC: 80.6 mg/dL
  TG: 102.8 mg/dL
  TP: 5.8 g/dL
  gamma-GTP: 1.2 IU/L
[3]
  TERMINAL_BW: 301.1 g
  APTT: 22.2 s
  Bas: 0%
  Eos: 0.8%
  Fbg: 298 mg/dL
  Hb: 14 g/dL
  Ht: 40.9%
  Lym: 81.4%
  MCH: 20.5 pg
  MCHC: 34.3%
  MCV: 59.8 fL
  Mono: 1.6%
  Neu: 15.4%
  PT: 16.1 s
  Plat: 113.5 x10_4/uL
  RBC: 685 x10_4/ul
  Ret: 4.1%
  WBC: 110.9 x10_2/uL
  KIDNEY_L: 1.1 g
  KIDNEY_R: 1.2 g
  KIDNEY_TOTAL: 2.3 g
  ALP: 1657 IU/L
  AST: 71.2 IU/L
  BUN: 19 mg/dL
  CRE: 0.2 mg/dL
  Ca: 10.3 mg/dL
  Cl: 107.2 meq/L
  DBIL: 0 mg/dL
  GLC: 178.4 mg/dL
  IP: 6.4 mg/dL
  LDH: 207.6 IU/L
  Na: 142.4 meq/L
  PL: 167.6 mg/dL
  RALB: 3 g/dL
  TBIL: 0.002 mg/dL
  TG: 140.8 mg/dL
  TP: 5.8 g/dL
  gamma-GTP: 1 IU/L
[4]
  TERMINAL_BW: 376.7 g
  Bas: 0%
  Eos: 1%
  Fbg: 291.4 mg/dL
  Hb: 14.9 g/dL
  Ht: 43.4%
  Lym: 83.8%
  MCH: 19.1 pg
  MCHC: 34.3%
  MCV: 55.8 fL
  Mono: 1.6%
  Neu: 11.8%
  PT: 17 s
  Plat: 107.7 x10_4/uL
  RBC: 779.8 x10_4/ul
  Ret: 2.5%
  WBC: 126.2 x10_2/uL
  KIDNEY_L: 1.3 g
  KIDNEY_R: 1.4 g
  KIDNEY_TOTAL: 2.7 g
  LIVER: 15.3 g
  ALP: 1167.6 IU/L
  AST: 73.6 IU/L
  BUN: 19.6 mg/dL
  CRE: 0.2 mg/dL
  Ca: 10.3 mg/dL
  Cl: 106.8 meq/L
  DBIL: 0 mg/dL
  GLC: 190.2 mg/dL
  IP: 5.5 mg/dL
  LDH: 168.4 IU/L
  Na: 141.8 meq/L
  PL: 144.4 mg/dL
  RALB: 3.1 g/dL
  TBIL: 0.016 mg/dL
  TC: 66 mg/dL
  TG: 153.2 mg/dL
  TP: 6 g/dL
  gamma-GTP: 1.2 IU/L
[5]
  TERMINAL_BW: 236.3 g
  APTT: 19.5 s
  Bas: 0%
  Eos: 0.8%
  Fbg: 308.2 mg/dL
  Hb: 12.9 g/dL
  Ht: 37.7%
  Lym: 82.6%
  MCH: 21.8 pg
  MCV: 64 fL
  Mono: 2%
  Neu: 13.6%
  PT: 16.3 s
  Plat: 122.8 x10_4/uL
  RBC: 589.4 x10_4/ul
  Ret: 6.6%
  WBC: 82 x10_2/uL
  KIDNEY_L: 1 g
  KIDNEY_R: 1 g
  KIDNEY_TOTAL: 2.1 g
  LIVER: 11.3 g
  ALP: 1629.2 IU/L
  AST: 75 IU/L
  BUN: 18.2 mg/dL
  CRE: 0.2 mg/dL
  Ca: 11 mg/dL
  Cl: 106.6 meq/L
  DBIL: 0 mg/dL
  GLC: 184.8 mg/dL
  IP: 6.6 mg/dL
  LDH: 226 IU/L
  Na: 140.8 meq/L
  PL: 152.6 mg/dL
  RALB: 3 g/dL
  TBIL: 0.006 mg/dL
  TC: 78 mg/dL
  TG: 100.6 mg/dL
  TP: 5.7 g/dL
  gamma-GTP: 1 IU/L
[6]
  TERMINAL_BW: 260.1 g
  APTT: 21.2 s
  Bas: 0%
  Eos: 1.2%
  Fbg: 311 mg/dL
  Hb: 13.6 g/dL
  Ht: 40.3%
  Lym: 80%
  MCH: 21 pg
  MCV: 62.2 fL
  Mono: 2.4%
  Neu: 15.6%
  PT: 16.2 s
  Plat: 111.8 x10_4/uL
  RBC: 648.6 x10_4/ul
  Ret: 5.4%
  WBC: 117 x10_2/uL
  KIDNEY_L: 1.1 g
  KIDNEY_R: 1.1 g
  KIDNEY_TOTAL: 2.1 g
  LIVER: 12.1 g
  ALP: 1544.4 IU/L
  AST: 68.4 IU/L
  BUN: 19 mg/dL
  CRE: 0.2 mg/dL
  Ca: 10.6 mg/dL
  Cl: 107 meq/L
  DBIL: 0 mg/dL
  GLC: 193 mg/dL
  IP: 6.9 mg/dL
  LDH: 228.6 IU/L
  Na: 142 meq/L
  PL: 144 mg/dL
  RALB: 3 g/dL
  TBIL: 0.004 mg/dL
  TC: 71.6 mg/dL
  TG: 120.2 mg/dL
  TP: 5.7 g/dL
  gamma-GTP: 1.2 IU/L
[7]
  TERMINAL_BW: 306.4 g
  APTT: 21.3 s
  Bas: 0%
  Eos: 0.8%
  Fbg: 308.2 mg/dL
  Hb: 13.6 g/dL
  Ht: 40.2%
  Lym: 81.6%
  MCH: 20.3 pg
  MCHC: 33.8%
  MCV: 60.1 fL
  Mono: 1.2%
  Neu: 14.6%
  PT: 15.9 s
  Plat: 118 x10_4/uL
  RBC: 669.2 x10_4/ul
  Ret: 4.4%
  WBC: 116.4 x10_2/uL
  KIDNEY_L: 1.3 g
  KIDNEY_R: 1.3 g
  KIDNEY_TOTAL: 2.5 g
  LIVER: 13.7 g
  ALP: 1416.2 IU/L
  AST: 67.6 IU/L
  BUN: 17.6 mg/dL
  CRE: 0.2 mg/dL
  Ca: 10.6 mg/dL
  Cl: 107 meq/L
  DBIL: 0 mg/dL
  GLC: 182.2 mg/dL
  IP: 6.4 mg/dL
  LDH: 187.6 IU/L
  Na: 143 meq/L
  PL: 155.2 mg/dL
  RALB: 3.1 g/dL
  TBIL: 0.004 mg/dL
  TC: 77.8 mg/dL
  TP: 5.8 g/dL
  gamma-GTP: 1 IU/L
[8]
  TERMINAL_BW: 374.4 g
  APTT: 23.8 s
  Bas: 0%
  Eos: 1%
  Fbg: 308.8 mg/dL
  Hb: 14.8 g/dL
  Ht: 43.5%
  Lym: 80.8%
  MCV: 56.9 fL
  Mono: 1.8%
  Neu: 15.2%
  PT: 16.8 s
  Plat: 108.8 x10_4/uL
  RBC: 764.6 x10_4/ul
  Ret: 2.6%
  WBC: 109.3 x10_2/uL
  KIDNEY_L: 1.4 g
  KIDNEY_R: 1.4 g
  KIDNEY_TOTAL: 2.8 g
  LIVER: 15.6 g
  ALP: 1283.8 IU/L
  AST: 59.2 IU/L
  BUN: 17.8 mg/dL
  CRE: 0.2 mg/dL
  Ca: 10.4 mg/dL
  Cl: 107.6 meq/L
  DBIL: 0 mg/dL
  GLC: 182.4 mg/dL
  IP: 5.4 mg/dL
  LDH: 138.4 IU/L
  Na: 143 meq/L
  PL: 140.6 mg/dL
  RALB: 3.2 g/dL
  TBIL: 0.004 mg/dL
  TC: 69.8 mg/dL
  TG: 121.2 mg/dL
  TP: 6.1 g/dL
  gamma-GTP: 1.2 IU/L
[9]
  TERMINAL_BW: 228.5 g
  APTT: 20.7 s
